# Assay results taken from patent US11274100B2, “EP300/CREBBP inhibitor” (Daiichi Sankyo Company, Limited, priority 2017, dated 2022).
# System: H3K27Ac
# Assay: Intracellular H3K27Ac inhibitory activity in LK2 cells (Test Example 2)
# Assay type: cell-based
# Conditions: Homo sapiens, LK-2, cultured with compound for 3 hours, read-out: Test Example 2 H3K27Ac Inhibition (LK2) IC50
# Method: [Test Example 2] Evaluation of Intracellular H3K27Ac Inhibitory Activity
# LK2 cells derived from human squamous cell lung cancer were seeded in a 96 well plate at 40000 cells/100 μL/well, and were cultured overnight at 37° C. in 5% CO2. The LK2 cells were purchased from Human Science Research Resources Bank. […] The supernatant was discarded, 4% paraformaldehyde was added thereto at 100 μL/well, and the resultant was allowed to stand still at room temperature for 15 minutes. The 4% paraformaldehyde was discarded, and the resultant was washed with PBS-T. A quenching buffer (PBS-T containing 1% H2O2) was added thereto at of 100 μL/well, and the resultant was allowed to stand still at room temperature for 10 minutes. The resultant was washed with PBS-T, a blocking buffer (StartingBlocK T20 (TBS) Blocking Buffer (Thermo […], #37543)) was added thereto at 200 μL/well, and the resultant was allowed to stand still at room temperature for 1 hour. The supernatant was discarded, Acetyl-Histone H3 (Lys27) (D5E4) XP (registered trademark) Rabbit mAb (cell Signaling, #8173) diluted with a blocking buffer was added thereto at 50 μL/well, and the resultant was allowed to stand still at 4° C. overnight. The resultant was washed with PBS-T, Anti-Rabbit IgG-HRP (Cell Signaling, #7074S) diluted with a blocking buffer was added thereto at 50 μL/well, and the resultant was cultured at room temperature for 1 hour. The resultant was washed with PBS-T, SuperSignal (registered trademark) ELISA Pico Chemiluminescent Substrate (Thermo […], #37069) was added thereto at 50 μL/well, and a signal was measured using EnVision.
row,SMILES,IC50
1,"COc1ccc(C2(C(=O)N3CCC[C@@H]3C(=O)Nc3ccccc3OC)CCCC2)cc1 [Example 10, N-(2-Methoxyphenyl)-1-{[1-(4-methoxyphenyl)cyclopentyl]carbonyl}-D-prolinamide]",6.11 µM
2,"COc1ccc(C2(C(=O)N3CCC[C@@H]3C(=O)Nc3ccc4c(c3)CCC(=O)N4)CCCC2)cc1 [Example 18, l-{[1-(4-Methoxyphenyl)cyclopentyl]carbonyl}-N-(2-oxo-1,2,3,4-tetrahydroquinolin-6-yl)-D-prolinamide]",3.34 µM
3,"COc1ccc(C2(C(=O)N3CCC[C@@H]3C(=O)Nc3ccc(OCc4ccccc4)cc3)CCCC2)cc1 [Example 12, N-[4-(Benzyloxy)phenyl]-1-{[1-(4-methoxyphenyl)cyclopentyl]carbonyl}-D-prolinamide]",2.58 µM
4,"COc1ccc(C2(C(=O)N3C[S+]([O-])C[C@@H]3C(=O)Nc3cccc4[nH]ncc34)CCCC2)cc1 (stereo partly drawn) [Example 28b, (4S)—N-(1H-Indazol-4-yl)-3-{[1-(4-methoxyphenyl)cyclopentyl]carbonyl}-1,3-thiazolidin-4-carboxamide 1-oxide]",6.88 µM
5,"COc1ccc(C2(C(=O)N3CCC[C@@H]3C(=O)Nc3cccc(C)c3)CCCC2)cc1 [Example 9, 1-{[1-(4-Methoxyphenyl)cyclopentyl]carbonyl}-N-(3-methylphenyl)-D-prolinamide]",8.45 µM
6,"C#C[C@@]1(O)C[C@H](C(=O)Nc2ccccc2Cl)N(C(=O)C2(c3ccc(OC)cc3)CCCC2)C1 [Example 32, (4S)—N-(2-Chlorophenyl)-4-ethynyl-4-hydroxy-1-{[1-(4-methoxyphenyl)cyclopentyl]carbonyl}-D-prolinamide]",1.65 µM
7,"COc1ccc(C2(C(=O)N3CCCCC[C@@H]3C(=O)Nc3ccccc3C#N)CCCC2)cc1 [Example 27, (2R)—N-(2-Cyanophenyl)-1-{[1-(4-methoxyphenyl)cyclopentyl]carbonyl}azepan-2-carboxamide]",2.53 µM
8,"COc1ccc(C2(C(=O)N3CCC[C@@H]3C(=O)Nc3ncccn3)CCCC2)cc1 [Example 20, 1-{[1-(4-Methoxyphenyl)cyclopentyl]carbonyl}-N-pyrimidin-2-yl-D-prolinamide]",7.72 µM
9,"COc1ccc(C2(C(=O)N3C[C@H](OC)C[C@@H]3C(=O)Nc3cccc4[nH]ncc34)CCCC2)cc1 [Example 6, (4R)—N-1H-Indazol-4-yl-4-methoxy-1-{[1-(4-methoxyphenyl)cyclopentyl]carbonyl}-D-prolinamide]",9.64 µM
10,"COc1ccc(C2(C(=O)N3CCC[C@@H]3C(=O)Nc3cccc4cccnc34)CCCC2)cc1 [Example 14, 1-{[1-(4-Methoxyphenyl)cyclopentyl]carbonyl}-N-quinolin-8-yl-D-prolinamide]",6.67 µM
11,"COc1ccc(C2(C(=O)N3CCC[C@@H]3C(=O)Nc3ccccc3)CCCC2)cc1 [Example 8, 1-{[1-(4-Methoxyphenyl)cyclopentyl]carbonyl}-N-phenyl-D-prolinamide]",6.53 µM
12,"COc1ccc(C2(C(=O)N3C[C@H](F)C[C@@H]3C(=O)Nc3cccc4[nH]ncc34)CCCOC2)cc1 (stereo partly drawn) [Example 42, (4R)-4-Fluoro-N-1H-indazol-4-yl-1-{[3-(4-methoxyphenyl)tetrahydro-2H-pyran-3-yl]carbonyl}-D-prolinamide]",4.01 µM
13,"COc1ccc(C2(C(=O)N3CCC[C@@H]3C(=O)Nc3ccncc3)CCCC2)cc1 [Example 11, 1-{[1-(4-Methoxyphenyl)cyclopentyl]carbonyl}-N-pyridin-4-yl-D-prolinamide]",8.06 µM
14,"COc1ccc(C2(C(=O)N3C[C@@H](F)C[C@@H]3C(=O)Nc3cccc4[nH]ncc34)CCCC2)cc1 [Example 7, (4S)-4-Fluoro-N-1H-indazol-4-yl-1-{[1-(4-methoxyphenyl)cyclopentyl]carbonyl}-D-prolinamide]",8.75 µM
15,"COc1ccc(C2(C(=O)N3[C@H](C)CC[C@@H]3C(=O)Nc3cccc4[nH]ncc34)CCCC2)cc1 [Example 25, (5R)—N-1H-Indazol-4-yl-1-{[1-(4-methoxyphenyl)cyclopentyl]carbonyl}-5-methyl-D-prolinamide]",5.32 µM
